From ChEMBL document CHEMBL5537115, “New broad-spectrum and potent antibacterial agents with dual-targeting mechanism: Promoting FtsZ polymerization and disrupting bacterial membranes” (Eur J Med Chem, 2024) come the findings set out here.

Common to all, as to format: functional
For experiment [1], the system named is Streptococcus pyogenes. Nature of the experiment: Antibacterial activity against erythromycin-resistant Streptococcus pyogenes 2 clinical isolate assessed as bacterial growth inhibition incubated for 20 hrs by CLSI based broth microdilution method. In general terms: In broth dilution the organism is exposed to a series of concentrations in liquid medium.
The subject of experiment [2] is Staphylococcus epidermidis. Nature of the experiment: Antibacterial activity against penicillin-resistant Staphylococcus epidermidis clinical isolate assessed as bacterial growth inhibition incubated for 20 hrs by CLSI based broth microdilution method.
Experiment [3] has as its system Staphylococcus aureus. The experiment can be described thus: Antibacterial activity against Staphylococcus aureus clinical isolate assessed as bacterial growth inhibition incubated for 20 hrs by CLSI based broth microdilution method.
Experiment [4] deals with Staphylococcus aureus. Nature of the experiment: Antibacterial activity against penicillin-resistant Staphylococcus aureus ATCC31007 assessed as bacterial growth inhibition incubated for 20 hrs by CLSI based broth microdilution method.
For experiment [5], the system named is Staphylococcus aureus. The experiment can be described thus: Antibacterial activity against methicillin-resistant Staphylococcus aureus ATCC43300 assessed as bacterial growth inhibition incubated for 20 hrs by CLSI based broth microdilution method.
For experiment [6], the system named is Klebsiella pneumoniae. Nature of the experiment: Antibacterial activity against Klebsiella pneumoniae ATCC BAA-1902 assessed as bacterial growth inhibition incubated for 20 hrs by CLSI based broth microdilution method.
Experiment [7] has as its system Acinetobacter baumannii. The experiment can be described thus: Antibacterial activity against Acinetobacter baumannii ATCC19606 assessed as bacterial growth inhibition incubated for 20 hrs by CLSI based broth microdilution method.
The test system of experiment [8] is Escherichia coli. The experiment can be described thus: Antibacterial activity against wild-type Escherichia coli BW25113 assessed as bacterial growth inhibition incubated for 20 hrs by CLSI based broth microdilution method.
The test system of experiment [9] is Escherichia coli. Nature of the experiment: Antibacterial activity against penicillin-susceptible Escherichia coli ATCC25922 assessed as bacterial growth inhibition incubated for 20 hrs by CLSI based broth microdilution method.
Experiment [10] deals with Enterococcus faecium. Nature of the experiment: Antibacterial activity against vancomycin-susceptible Enterococcus faecium ATCC19434 assessed as bacterial growth inhibition incubated for 20 hrs by CLSI based broth microdilution method.
Experiment [11] has as its system Enterococcus faecalis. Nature of the experiment: Antibacterial activity against vancomycin-susceptible Enterococcus faecalis ATCC29212 assessed as bacterial growth inhibition incubated for 20 hrs by CLSI based broth microdilution method.
Experiment [12] concerns Streptococcus pyogenes. The experiment can be described thus: Antibacterial activity against erythromycin-susceptible Streptococcus pyogenes 1 assessed as bacterial growth inhibition incubated for 20 hrs by CLSI based broth microdilution method.
The test system of experiment [13] is Staphylococcus aureus. The experiment can be described thus: Antibacterial activity against erythromycin-susceptible Staphylococcus aureus ATCC25923 assessed as bacterial growth inhibition incubated for 20 hrs by CLSI based broth microdilution method.
Experiment [14] concerns Bacillus pumilus. The experiment can be described thus: Antibacterial activity against penicillin-susceptible Bacillus pumilus CMCC63202 assessed as bacterial growth inhibition incubated for 20 hrs by CLSI based broth microdilution method.
Experiment [15] deals with Bacillus subtilis. Nature of the experiment: Antibacterial activity against penicillin-susceptible Bacillus subtilis ATCC9372 assessed as bacterial growth inhibition incubated for 20 hrs by CLSI based broth microdilution method.
For experiment [16], the system named is Enterococcus faecalis. Nature of the experiment: Antibacterial activity against vancomycin-resistant Enterococcus faecalis ATCC51299 assessed as bacterial growth inhibition incubated for 20 hrs by CLSI based broth microdilution method.
Experiment [17] concerns Enterococcus faecium. The experiment can be described thus: Antibacterial activity against vancomycin-resistant Enterococcus faecium ATCC51559 assessed as bacterial growth inhibition incubated for 20 hrs by CLSI based broth microdilution method.

Values after ≈ are worked out from the molar mass of the structure shown.

As usually defined, the MIC is the smallest concentration in the dilution series that meets the test's criterion for growth inhibition. `C[n+]1cc(-c2ccccc2)c(/C=C/c2ccc(N3CCCCC3)cc2)cc1-c1ccc2ccccc2c1.[I-]`: the MIC was determined as 2 mg/L in experiment [1]; 2 mg/L in [2]; 0.5 mg/L in experiment [3]; 2 mg/L in experiment [4]; 1 mg/L in experiment [5]; 16 mg/L in experiment [6]. Also, the minimal inhibitory concentration (MIC) in [7] was 2 mg/L; in experiment [8], 4 mg/L; in experiment [9], 64 mg/L; in experiment [10], 1 mg/L; in experiment [11] it was 1 mg/L; in experiment [12] it was 2 mg/L. For the same compound, the MIC in [13] was 0.5 mg/L; in experiment [14] it was 0.5 mg/L; in [15] it was 1 mg/L; in experiment [16] it was 2 mg/L; in experiment [17] it was 2 mg/L.

With `CCCCCCOc1ccc(/C=C/c2cc(-c3ccccc3)[n+](C)cc2-c2ccccc2)cc1.[I-]`, the MIC in [1] is 2 mg/L; in experiment [2] it was 2 mg/L; in experiment [3] it was 0.5 mg/L; in experiment [4] it was 2 mg/L; in experiment [5] it was 2 mg/L; in experiment [6] it was 8 mg/L. The MIC in experiment [7] was determined as 4 mg/L; in [8] it was 4 mg/L; in experiment [9], 4 mg/L; in experiment [10] it was 2 mg/L; in experiment [11] it was 2 mg/L; in experiment [12] it was 2 mg/L. For the same compound, the MIC in experiment [13] was determined as 0.5 mg/L; in experiment [14] it was 0.5 mg/L; in experiment [15] it was 0.5 mg/L; in experiment [16], 2 mg/L; in [17] it was 1 mg/L.

In the case of `C[n+]1cc(-c2ccccc2)cc(/C=C/c2ccc(Cl)c(Cl)c2)c1-c1ccccc1.[I-]`, the MIC is 2 mg/L in experiment [1]; 8 mg/L in experiment [2]; 2 mg/L in experiment [3]; 8 mg/L in [4]; 2 mg/L in experiment [5]; above 64 mg/L in experiment [6]. Further, the MIC in experiment [7] amounted to 2 mg/L; in experiment [8], 64 mg/L; in [9] it was 64 mg/L; in experiment [10], 8 mg/L; in [11], 8 mg/L; in experiment [12], 2 mg/L. The MIC in [13] came out at 0.5 mg/L; in experiment [14], 4 mg/L; in experiment [15], 0.5 mg/L; in experiment [16], 8 mg/L; in [17] it was 8 mg/L.

Regarding `C[n+]1cc(-c2ccccc2)cc(/C=C/c2ccc(C#N)cc2)c1-c1ccccc1.[I-]`, the MIC in [1] was 32 mg/L; in [2] it was above 64 mg/L; in experiment [3], 32 mg/L; in experiment [4], above 64 mg/L; in experiment [5] it was 64 mg/L; in [6], above 64 mg/L. The MIC is 64 mg/L in [7]; above 64 mg/L in experiment [8]; above 64 mg/L in [9]; above 64 mg/L in [10]; above 64 mg/L in experiment [11]; 32 mg/L in [12]. The MIC in [13] is 8 mg/L; in [14] it was above 64 mg/L; in experiment [15], 32 mg/L; in experiment [16] it was above 64 mg/L; in experiment [17], above 64 mg/L.

With `C[n+]1cc(-c2ccccc2)c(/C=C/c2ccc(O)cc2)cc1-c1ccc(C(C)(C)C)cc1.[I-]`, the MIC in [1] is 2 mg/L; in experiment [2], 4 mg/L; in experiment [3], 0.5 mg/L; in experiment [4], 4 mg/L; in [5] it was 1 mg/L; in [6], above 64 mg/L. The MIC is 8 mg/L in [7]; 64 mg/L in experiment [8]; 64 mg/L in experiment [9]; 4 mg/L in experiment [10]; 4 mg/L in [11]; 2 mg/L in experiment [12]. The MIC in experiment [13] came out at 0.125 mg/L; in experiment [14] it was 4 mg/L; in [15], 1 mg/L; in [16] it was 4 mg/L; in experiment [17], 4 mg/L.

With `C[n+]1cc(-c2ccccc2)c(/C=C/c2ccc(F)cc2)cc1-c1ccc(C(C)(C)C)cc1.[I-]`, the MIC in [1] was found to be 4 mg/L; in experiment [2] it was 2 mg/L; in experiment [3], 1 mg/L; in [4], 1 mg/L; in [5] it was 1 mg/L; in [6], 8 mg/L. Further, the MIC in [7] worked out at 4 mg/L; in experiment [8], 8 mg/L; in experiment [9] it was 8 mg/L; in experiment [10] it was 2 mg/L; in [11], 2 mg/L; in [12] it was 2 mg/L. Besides, the MIC in experiment [13] is 1 mg/L; in experiment [14] it was 1 mg/L; in [15], 1 mg/L; in [16], 2 mg/L; in [17], 2 mg/L.

`Cc1ccc(/C=C/c2cc(-c3ccccc3)c[n+](C)c2-c2ccccc2)cc1.[I-]`: the MIC is 4 mg/L in experiment [1]; 32 mg/L in [2]; 2 mg/L in experiment [3]; 32 mg/L in experiment [4]; 4 mg/L in experiment [5]; above 64 mg/L in experiment [6]. The MIC in experiment [7] is 32 mg/L; in [8], above 64 mg/L; in [9] it was above 64 mg/L; in [10], 32 mg/L; in experiment [11], 16 mg/L; in [12] it was 4 mg/L. Also, the MIC amounted to 1 mg/L in [13]; 16 mg/L in experiment [14]; 2 mg/L in [15]; 32 mg/L in [16]; 16 mg/L in experiment [17].

For the compound `C[n+]1cc(-c2ccccc2)c(/C=C/c2ccc(O)cc2)cc1-c1ccccc1.[I-]`, the MIC in experiment [1] worked out at 16 mg/L; in experiment [2], 16 mg/L; in experiment [3], 16 mg/L; in [4] it was 64 mg/L; in [5], 32 mg/L; in [6], 64 mg/L. Further, the MIC in [7] is 32 mg/L; in experiment [8], above 64 mg/L; in [9] it was above 64 mg/L; in experiment [10], 64 mg/L; in experiment [11] it was 64 mg/L; in experiment [12] it was 4 mg/L. Besides, the MIC in experiment [13] was 2 mg/L; in experiment [14], 32 mg/L; in [15] it was 8 mg/L; in experiment [16] it was 64 mg/L; in experiment [17], 64 mg/L.

On to `C[n+]1cc(-c2ccccc2)cc(/C=C/c2ccc(Br)cc2)c1-c1ccccc1.[I-]`, for which the MIC in experiment [1] turned out to be 4 mg/L; in [2] it was 8 mg/L; in experiment [3] it was 2 mg/L; in [4], 16 mg/L; in experiment [5] it was 4 mg/L; in [6] it was 64 mg/L. In addition, the MIC in experiment [7] is 8 mg/L; in [8] it was above 64 mg/L; in experiment [9] it was 64 mg/L; in [10] it was 16 mg/L; in experiment [11], 16 mg/L; in experiment [12], 4 mg/L. Further, the MIC is 1 mg/L in experiment [13]; 8 mg/L in experiment [14]; 2 mg/L in experiment [15]; 16 mg/L in experiment [16]; 16 mg/L in [17].

Take `CCCOc1ccc(/C=C/c2cc(-c3ccccc3)c[n+](C)c2-c2ccccc2)cc1.[I-]`: the MIC in experiment [1] stood at 4 mg/L; in experiment [2], 4 mg/L; in experiment [3], 0.5 mg/L; in [4] it was 4 mg/L; in [5] it was 2 mg/L; in experiment [6] it was 8 mg/L. The MIC in experiment [7] amounted to 8 mg/L; in [8], 64 mg/L; in [9], 32 mg/L; in [10], 8 mg/L; in experiment [11] it was 8 mg/L; in experiment [12] it was 2 mg/L. Also, the MIC in experiment [13] came to 0.5 mg/L; in experiment [14], 4 mg/L; in experiment [15], 2 mg/L; in experiment [16], 8 mg/L; in experiment [17], 8 mg/L.

Consider `CN(C)[C@@H]1C(O)=C(C(N)=O)C(=O)[C@@]2(O)C(O)=C3C(=O)c4c(O)cccc4[C@@](C)(O)[C@H]3C[C@@H]12` [TETRACYCLINE], for which the minimal inhibitory concentration (MIC) came to 64 mg/L (≈ 144 µM) in experiment [1]; 32 mg/L (≈ 72 µM) in experiment [2]; 1 mg/L (≈ 2.25 µM) in [3]; 64 mg/L (≈ 144 µM) in experiment [4]; 0.5 mg/L (≈ 1.13 µM) in experiment [5]; 32 mg/L (≈ 72 µM) in [6]. Moreover, the MIC in experiment [7] was found to be 8 mg/L (≈ 18 µM); in experiment [8], 2 mg/L (≈ 4.5 µM); in [9], 0.5 mg/L (≈ 1.13 µM); in experiment [10], 2 mg/L (≈ 4.5 µM); in [11], 64 mg/L (≈ 144 µM); in experiment [12], 1 mg/L (≈ 2.25 µM). For the same compound, the MIC in experiment [13] turned out to be 0.5 mg/L (≈ 1.13 µM); in experiment [14], 64 mg/L (≈ 144 µM); in experiment [15], 0.5 mg/L (≈ 1.13 µM); in experiment [16] it was 2 mg/L (≈ 4.5 µM); in [17] it was 2 mg/L (≈ 4.5 µM).
